Measurements taken from ChEMBL document CHEMBL4765385, “Synthesis and biological evaluation of β-lapachone-monastrol hybrids as potential anticancer agents” (Eur J Med Chem, 2020).
pIC50: −log10 of the molar value. Calls of active or inactive are those of the source. The rule behind the calls is not given here.

How the values were obtained:
L02 = assay: Cytotoxicity against human L02 cells measured after 48 hrs by MTT assay; assay type: cell-based; details: L02, 48 h
A549 [1] = assay: Antiproliferative activity against human A549 cells measured after 48 hrs in presence of NQO1 inhibitor dicoumarol by MTT assay; assay type: functional, cell-based; details: A549, 48 h
HepG2 [2] = assay: Antiproliferative activity against human HepG2 cells measured after 48 hrs by MTT assay; details: HepG2, 48 h
A549 [3] = assay: cells; details: Homo sapiens, A549, 48 h
NCI-H596 [4] = assay: Antiproliferative activity against human NCI-H596 cells measured after 48 hrs by MTT assay; assay type: functional, cell-based; details: NCI-H596, 48 h
[5] = target: NAD(P)H dehydrogenase [quinone] 1 (Homo sapiens, UniProt P15559); assay: Substrate activity at recombinant human C-terminal His-tagged NQO1 (1 to 274 residues) expressed in Escherichia coli assessed as metabolic rate by measuring NADPH oxidation per micromol protein at 10 mmol/L measured at 5 secs interval for 1 min by UV-Visible Spectrophotometric method; assay type: ADME
in vitro = details: human, L02 cells and A549 cells
HepG2 [6] = assay: Antitumor activity against human HepG2 cells xenografted in BALB/c athymic nude mouse assessed as tumor growth inhibition at 20 mg/kg, iv administered at 2 days interval 19 days by caliper method relative to control; assay type: functional; details: 456 h, time 19 day, read-out: TGI
NCI-H596 [7] = assay: Induction of reactive oxygen species production in human NCI-H596 cells at 5 uM measured after 5 hrs by DCFH-DA staining based flow cytometry; assay type: functional, cell-based
HepG2 [8] = assay: Induction of reactive oxygen species production in human HepG2 cells at 5 uM measured after 5 hrs by DCFH-DA staining based flow cytometry; assay type: functional, cell-based

SMILES	pIC50 (A549 [1])	pIC50 (HepG2 [2])	pIC50 (A549 [3])	pIC50 (NCI-H596 [4])	Drug metabolism [5]	pIC50 (L02)	selectivity ratio (in vitro)	inhibition in vivo at 20 mg/kg (HepG2 [6])	Activity (NCI-H596 [7])	Activity (HepG2 [8])
CC1(C)CCC2=C(O1)c1ccccc1C(=O)C2=O [LAPACHONE]	5.22	5.55	5.48	5.30		5.34	1.37	67.4%	Active	Active
O=C1C(=O)c2ccccc2C2=C1C(c1cccc(O)c1Cl)NC(=S)N2 (configuration not stated)	5.88	5.85	5.99	5.51	1273 micromol/min/micromol protein	5.79	1.61			
O=C1C(=O)c2cccc(Br)c2C2=C1C(c1cccc(O)c1)NC(=S)N2 (configuration not stated)	5.69	5.54	5.71	5.70	2012 micromol/min/micromol protein	5.78	0.86			
O=C1C(=O)c2ccccc2C2=C1C(c1cccc(O)c1)NC(=S)N2 (configuration not stated)	5.77	5.67	6.43	5.60	1128 micromol/min/micromol protein	5.54	7.78			
O=C1C(=O)c2ccccc2C2=C1C(c1ccc(Cl)c(O)c1)NC(=S)N2 (configuration not stated)	5.85	5.80	6.19	5.74	734 micromol/min/micromol protein	5.80	2.47			

More lines, in order of rising pIC50 (A549 [1]), values ahead:

pIC50 (A549 [1])	pIC50 (HepG2 [2])	pIC50 (A549 [3])	pIC50 (NCI-H596 [4])	Drug metabolism [5]	SMILES	pIC50 (L02)	selectivity ratio (in vitro)	inhibition in vivo at 20 mg/kg (HepG2 [6])	Activity (NCI-H596 [7])	Activity (HepG2 [8])
5.83	5.82	5.75	5.75	614 micromol/min/micromol protein	COc1cc2c(cc1OC)C1=C(C(=O)C2=O)C(c2cccc(O)c2)NC(=S)N1 (configuration not stated)	5.77	0.97			
5.90	5.86	6.02	5.81	2398 micromol/min/micromol protein	O=C1C(=O)c2ccc(Cl)cc2C2=C1C(c1cccc(O)c1)NC(=S)N2 (configuration not stated)	5.77	1.77			
5.92	5.87	6.31	4.96	539 micromol/min/micromol protein	Cc1cc(O)cc(C2NC(=S)NC3=C2C(=O)C(=O)c2ccccc23)c1 (configuration not stated)	5.08	17.2			
5.92		5.88	5.97		COc1cccc2c1C(=O)c1c(O)c3c(c(O)c1C2=O)C[C@@](O)(C(=O)CO)C[C@@H]3O[C@H]1C[C@H](N)[C@H](O)[C@H](C)O1 [DOXORUBICIN]	5.66				
